Common to all, as to type: in vivo
Test [1] relates to Echinochloa crus-galli. Description: Test Example 12: herbicidal effect test by treatment during growing period in paddy field. The settings on record: 120 g/10a; treatment seven days after sowing in flooded paddy pot; assessed 14 days after treatment. The essentials: (§1)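 Seeds (30 per species) are sown shallowly into fertilized, puddled paddy soil kept under ~3 cm of water in a greenhouse. One week later, compound formulated as an emulsifiable concentrate is applied dropwise to the water at 120 g a.i./10 are. After 14 days, dry weights give percent suppression against untreated controls.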

Test [2] deals with Lindernia pyxidaria. The description is as above. The following applies: 120 g/10a; treatment seven days after sowing in flooded paddy pot; assessed 14 days after treatment. In a few lines: as §1
The test system of test [3] is Monochoria vaginalis. The test is described as above. The following applies: 120 g/10a; treatment seven days after sowing in flooded paddy pot; assessed 14 days after treatment. The essentials: as §1
The test system of test [4] is Scirpus juncoides. Described as above. The following applies: 120 g/10a; treatment seven days after sowing in flooded paddy pot; assessed 14 days after treatment. In a few lines: as §1
The next test concerns Chenopodium album. Description: Test Example 14: herbicidal effect test by foliage treatment in upland field. The settings on record: 7 days after sowing, 120 g/10a, 14 days after treatment. In a few lines: (§2)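 Post-sowing spray at day 7, 120 g a.i./10 are in 100 L water/10 are; alluvial soil pots, duplicate plots; endpoint day 14, % suppression from dry weight relative to untreated.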

The test system of another test is crabgrass. The test is described as above. The settings on record: 7 days after sowing, 120 g/10a, 14 days after treatment. The essentials:
as §2

The test system of test [5] is Echinochloa crus-galli. Nature of the test: Test Example 11: herbicidal effect test by soil treatment in paddy field. The settings on record: 120 g/10a active ingredient, 14 days after treatment. In a few lines:
(§3)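 Pre-emergence paddy test, 120 g a.i./10 are, emulsifiable concentrate diluted in water and added dropwise to ~3 cm flood water right after sowing (30 seeds/species, 0–1 cm depth, fertilized puddled soil). Greenhouse; 2 replicates; dry-weight suppression (%) vs untreated, day 14.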

Test [6] has as its system Lindernia pyxidaria. Described as above. The following applies: 120 g/10a active ingredient, 14 days after treatment. In a few lines:
as §3

The subject of test [7] is Monochoria vaginalis. The description is as above. The following applies: 120 g/10a active ingredient, 14 days after treatment. In a few lines: as §3
Test [8] concerns Scirpus juncoides. The test is described as above. The settings on record: 120 g/10a active ingredient, 14 days after treatment. The essentials:
as §3

Test [9] has as its system Echinochloa crus-galli. Description: Test Example 14: herbicidal effect test by foliage treatment in upland field. The settings on record: 7 days after sowing, 120 g/10a, 14 days after treatment. In a few lines:
as §2

Another test concerns Amaranthus viridis. Described as above. The settings on record: 7 days after sowing, 120 g/10a, 14 days after treatment. In a few lines:
as §2

`CC(C)N(C(=O)n1cnn(S(=O)(=O)c2ccc(C(C)(C)C)cc2)c1=O)c1c(F)cc(F)cc1F` [Compound 11-686]: the “Weed suppression rate (%) Echinochloa crus-galli” value in the test on Echinochloa crus-galli [1] and in the test on Echinochloa crus-galli [5] was 90% each time. Further, the “Weed suppression rate (%) Lindemia pyxidaria” value is on record as 60% with Lindernia pyxidaria [2] and 100% in the test on Lindernia pyxidaria [6]. For the same molecule, the figures for the “Weed suppression rate (%) Monochoria vaginalis” value in the test on Monochoria vaginalis [3] and in the test on Monochoria vaginalis [7] were 70% and 80%, respectively. Further, the “Weed suppression rate (%) Scirpus juncoides” value in the test with Scirpus juncoides [4] and in the test on Scirpus juncoides [8] was 100% throughout. For the same molecule, the “herbicidal effect, Chenopodium album” value with Chenopodium album worked out at 60%. Moreover, in the test on crabgrass, the “herbicidal effect, Crabgrass” value was 90%. In addition, the “herbicidal effect, Echinochloa crus-galli” value in the test with Echinochloa crus-galli [9] is 90%. The “herbicidal effect, Amaranthus viridis” value in the test on Amaranthus viridis was 30%.
As to `CC(C)N(C(=O)n1cnn(S(=O)(=O)c2cccc(C(F)(F)F)c2)c1=O)c1ccc(Cl)cc1Br` [Compound 11-735], the “Weed suppression rate (%) Echinochloa crus-galli” value with Echinochloa crus-galli [1] and in the test with Echinochloa crus-galli [5] was 100% each time. In addition, the “Weed suppression rate (%) Lindemia pyxidaria” value with Lindernia pyxidaria [2] and in the test on Lindernia pyxidaria [6] was 90% throughout. Also, the “Weed suppression rate (%) Monochoria vaginalis” value with Monochoria vaginalis [3] and in the test on Monochoria vaginalis [7] was 90% throughout. The “Weed suppression rate (%) Scirpus juncoides” value in the test with Scirpus juncoides [4] and in the test with Scirpus juncoides [8] was 100% each time. Also, the “herbicidal effect, Chenopodium album” value with Chenopodium album came to 70%. In addition, the “herbicidal effect, Crabgrass” value with crabgrass is 100%. Moreover, the “herbicidal effect, Echinochloa crus-galli” value with Echinochloa crus-galli [9] came out at 60%. In the test on Amaranthus viridis, the “herbicidal effect, Amaranthus viridis” value came to 70%.
Turning to `CC(C)N(C(=O)n1cnn(S(=O)(=O)c2c(F)c(F)c(F)c(F)c2F)c1=O)c1c(F)cc(F)cc1F` [Compound 11-815], the “Weed suppression rate (%) Echinochloa crus-galli” value in the test on Echinochloa crus-galli [1] and with Echinochloa crus-galli [5] was 100% each time. Besides, the “Weed suppression rate (%) Lindemia pyxidaria” value in the test on Lindernia pyxidaria [2] came to 80%; in the test on Lindernia pyxidaria [6] it was 100%. The “Weed suppression rate (%) Monochoria vaginalis” value in the test on Monochoria vaginalis [3] was determined as 70%; with Monochoria vaginalis [7], 80%. The “Weed suppression rate (%) Scirpus juncoides” value in the test on Scirpus juncoides [4] is recorded as 70%; in the test with Scirpus juncoides [8], 100%. For the same molecule, the “herbicidal effect, Chenopodium album” value with Chenopodium album worked out at 80%. In addition, the “herbicidal effect, Crabgrass” value with crabgrass is reported as 100%. Moreover, the “herbicidal effect, Echinochloa crus-galli” value with Echinochloa crus-galli [9] turned out to be 70%. The “herbicidal effect, Amaranthus viridis” value with Amaranthus viridis is 70%.
Regarding `CC(C)N(C(=O)n1cnn(S(=O)(=O)c2cccs2)c1=O)c1ccccc1` [Compound 11-1011], the “Weed suppression rate (%) Echinochloa crus-galli” value in the test on Echinochloa crus-galli [1] and in the test on Echinochloa crus-galli [5] was 90% in each case. Also, the “Weed suppression rate (%) Lindemia pyxidaria” value with Lindernia pyxidaria [2] and in the test on Lindernia pyxidaria [6] was 80% throughout. The “Weed suppression rate (%) Monochoria vaginalis” value with Monochoria vaginalis [3] and with Monochoria vaginalis [7] was 80% each time. Also, the “Weed suppression rate (%) Scirpus juncoides” value in the test with Scirpus juncoides [4] and in the test with Scirpus juncoides [8] was 90% each time. The “herbicidal effect, Chenopodium album” value in the test with Chenopodium album came to 80%. Moreover, the “herbicidal effect, Crabgrass” value in the test with crabgrass amounted to 90%. Moreover, the “herbicidal effect, Echinochloa crus-galli” value with Echinochloa crus-galli [9] was 80%. For the same molecule, the “herbicidal effect, Amaranthus viridis” value with Amaranthus viridis is recorded as 90%.
As to `CC(C)N(C(=O)n1cnn(S(=O)(=O)c2cccs2)c1=O)c1ccc(F)c(F)c1F` [Compound 11-1025], the “Weed suppression rate (%) Echinochloa crus-galli” value in the test with Echinochloa crus-galli [1] and with Echinochloa crus-galli [5] was 100% each time. Further, the “Weed suppression rate (%) Lindemia pyxidaria” value in the test with Lindernia pyxidaria [2] was 80%; with Lindernia pyxidaria [6], 100%. Also, the “Weed suppression rate (%) Monochoria vaginalis” value in the test on Monochoria vaginalis [3] and in the test with Monochoria vaginalis [7] was 100% throughout. Besides, the “Weed suppression rate (%) Scirpus juncoides” value in the test on Scirpus juncoides [4] and in the test on Scirpus juncoides [8] was 100% each time. Also, in the test with Chenopodium album, the “herbicidal effect, Chenopodium album” value is reported as 60%. Moreover, the “herbicidal effect, Crabgrass” value with crabgrass came out at 100%. Further, in the test on Echinochloa crus-galli [9], the “herbicidal effect, Echinochloa crus-galli” value is 100%. Besides, the “herbicidal effect, Amaranthus viridis” value in the test with Amaranthus viridis is listed as 60%.
Regarding `CC(C)N(C(=O)n1cnn(S(=O)(=O)c2cccs2)c1=O)c1c(F)cc(F)cc1F` [Compound 11-1026], the “Weed suppression rate (%) Echinochloa crus-galli” value in the test on Echinochloa crus-galli [1] and in the test on Echinochloa crus-galli [5] was 100% in each case. The “Weed suppression rate (%) Lindemia pyxidaria” value with Lindernia pyxidaria [2] came to 80%; with Lindernia pyxidaria [6], 100%. Besides, the “Weed suppression rate (%) Monochoria vaginalis” value in the test with Monochoria vaginalis [3] and in the test with Monochoria vaginalis [7] was 100% throughout. Moreover, the “Weed suppression rate (%) Scirpus juncoides” value with Scirpus juncoides [4] and in the test with Scirpus juncoides [8] was 100% in each case. The “herbicidal effect, Chenopodium album” value in the test on Chenopodium album is listed as 70%. For the same molecule, the “herbicidal effect, Crabgrass” value in the test with crabgrass came out at 90%. For the same molecule, the “herbicidal effect, Echinochloa crus-galli” value with Echinochloa crus-galli [9] is reported as 90%. The “herbicidal effect, Amaranthus viridis” value in the test on Amaranthus viridis worked out at 30%.
Turning to `CC(C)N(C(=O)n1cnn(S(=O)(=O)c2cccs2)c1=O)c1ccc(Br)cc1Cl` [Compound 11-1033], the “Weed suppression rate (%) Echinochloa crus-galli” value in the test with Echinochloa crus-galli [1] and with Echinochloa crus-galli [5] was 100% in each case. In addition, the “Weed suppression rate (%) Lindemia pyxidaria” value in the test on Lindernia pyxidaria [2] and in the test with Lindernia pyxidaria [6] was 100% in each case. For the same molecule, the “Weed suppression rate (%) Monochoria vaginalis” value in the test with Monochoria vaginalis [3] is given as 100%; with Monochoria vaginalis [7], 90%. Besides, the “Weed suppression rate (%) Scirpus juncoides” value in the test on Scirpus juncoides [4] and with Scirpus juncoides [8] was 100% in each case. Also, the “herbicidal effect, Chenopodium album” value in the test on Chenopodium album is recorded as 60%. Further, the “herbicidal effect, Crabgrass” value with crabgrass is listed as 90%. For the same molecule, the “herbicidal effect, Echinochloa crus-galli” value in the test with Echinochloa crus-galli [9] came to 90%. The “herbicidal effect, Amaranthus viridis” value in the test on Amaranthus viridis amounted to 60%.
As for `CC(C)N(Cc1ccc(F)cc1F)C(=O)n1cnn(S(=O)(=O)c2cccs2)c1=O` [Compound 11-1046], the “Weed suppression rate (%) Echinochloa crus-galli” value in the test on Echinochloa crus-galli [1] and in the test on Echinochloa crus-galli [5] was 100% each time. In addition, the “Weed suppression rate (%) Lindemia pyxidaria” value with Lindernia pyxidaria [2] was 90%; in the test with Lindernia pyxidaria [6], 80%. For the same molecule, the “Weed suppression rate (%) Monochoria vaginalis” value is 90% in the test on Monochoria vaginalis [3] and 60% in the test with Monochoria vaginalis [7]. In addition, the “Weed suppression rate (%) Scirpus juncoides” value in the test on Scirpus juncoides [4] turned out to be 90%; in the test on Scirpus juncoides [8], 80%. Also, in the test on Chenopodium album, the “herbicidal effect, Chenopodium album” value is listed as 40%. For the same molecule, the “herbicidal effect, Crabgrass” value in the test on crabgrass was found to be 100%. Also, the “herbicidal effect, Echinochloa crus-galli” value in the test with Echinochloa crus-galli [9] amounted to 0%. Moreover, the “herbicidal effect, Amaranthus viridis” value in the test with Amaranthus viridis was determined as 60%.
As to `CC(C)N(C(=O)n1cnn(S(=O)(=O)N(C)C)c1=O)c1ccc(Cl)cc1F` [Compound 11-1072], the results for the “Weed suppression rate (%) Echinochloa crus-galli” value in the test with Echinochloa crus-galli [1] and with Echinochloa crus-galli [5] were 100% and 90%, respectively. In addition, the “Weed suppression rate (%) Lindemia pyxidaria” value came out at 90% in the test on Lindernia pyxidaria [2] and 80% in the test with Lindernia pyxidaria [6]. The “Weed suppression rate (%) Monochoria vaginalis” value in the test with Monochoria vaginalis [3] is listed as 60%; with Monochoria vaginalis [7], 80%. Besides, the “Weed suppression rate (%) Scirpus juncoides” value with Scirpus juncoides [4] and in the test on Scirpus juncoides [8] was 90% each time. For the same molecule, in the test on Chenopodium album, the “herbicidal effect, Chenopodium album” value was determined as 80%. For the same molecule, in the test on crabgrass, the “herbicidal effect, Crabgrass” value came to 90%. For the same molecule, the “herbicidal effect, Echinochloa crus-galli” value with Echinochloa crus-galli [9] is recorded as 80%. Besides, in the test with Amaranthus viridis, the “herbicidal effect, Amaranthus viridis” value was 90%.

For the origin of these results see US11076595B2, “1-(n,n-disubstituted carbamoyl) 4-(substituted sulfonyl)triazolin-5-one derivative, 4-(n,n-disubstituted carbamoyl) 1-(substituted sulfonyl)triazolin-5-one derivative, and herbicide containing said derivative as active ingredient” (HOKKO CHEMICAL INDUSTRY CO., LTD., priority 2017, dated 2021).
